# Read-outs that look alike come from different tables or passages of the source.
# Assays:
# CRM1 substrate RanBP1 = test: Nuclear export block (RanBP1 localization, recovery after compound removal); type: cell-based; details: recovery of cytoplasmic RanBP1 localization after compound washout (typically 1 h exposure; 8, 24 or 48 h recovery)
# Method: The nuclear export blocking capability of compounds of this invention was evaluated as follows:
# 1-5×10^4 cells were seeded onto 12 mm glass coverslips or wells of a chamber slide (for example, Lab-Tek #177445). Cells were grown overnight at 37° C. to allow cells to attach to the surface. Media was removed and replaced with media containing the desired test compound and incubated the required time period (typically 1 h). For recovery experiments, cells were washed with PBS or media and incubated in media without test compound for the desired recovery periods (typically 8, 24, or 48 h). The media was removed and coverslips/wells were washed with PBS pH 7.4 for 1 minute. Coverslips or slides were fixed with 3.7% formaldehyde in PBS for 20 minutes at room temperature, washed three times in PBS, and stained for the CRM1 substrate RanBP1.
# Coverslips or chamber slides were permeabilized and blocked in 10% donkey serum, 0.1% Triton X-100 in PBS for 30 minutes at room temperature. Primary antibodies were diluted in PBS and incubated for 1 hour at room temperature: goat-anti-RanBP1 (Santa Cruz Biotechnology, sc-1160; 1:50 dilution) and mouse-anti-tubulin (Sigma, T9026; 1:400). Cells were washed 3×5 minutes in PBS. Secondary antibodies donkey-anti-goat Cy3 (705-165-147, Jackson Immunoresearch) and donkey anti-mouse FITC (715-095-150, Jackson Immunoresearch) were diluted 1:200 in PBS and incubated for 1 hour at room temperature. Secondary antibody was removed and cells were stained with a nuclear dye such as DAPI (Sigma, D8417; 2.5 ug/mL in PBS) or Hoechst 33342 (Molecular Probes, H3570; 100 ng/mL in PBS) for 5 minutes at room temperature. Cells were washed 3×5 minutes in PBS and coverslips were mounted with FluorSave (EMD Biosciences, 80058-108). Nuclear (N) or cytoplasmic (C) localization of RanBP1 was examined using a 40× objective on a Zeiss Axiovert 200 inverted epiflourescence microscope. Nuclear localization (N>C) was confirmed after the initial drugging period.
# LNCap = test: Inhibition of tumor cell proliferation, LNCap; type: cell-based, human; details: read-out: Cancer Cell Line (IC50, nM) LNCap
# Method: (§1) The biological activity of compounds of this invention was evaluated by measuring their inhibitory effect on the proliferation of various tumor cell lines. HCT-116 is a human colon cancer cell line. LNCap is a human prostate cancer cell line. SiHa is an HPV-16 positive human cervical cancer line.
# HCT-116 = test: Inhibition of tumor cell proliferation, HCT-116; type: cell-based, human; details: read-out: Cancer Cell Line (IC50, nM) HCT-116
# Method: as §1
# SiHa = test: Inhibition of tumor cell proliferation, SiHa; type: cell-based, human; details: read-out: Cancer Cell Line (IC50, nM) SiHa
# Method: as §1
compound,measurement,setting,value
CNC(=O)OC/C=C(\C)C[C@H](C)[C@@H](O)[C@H](C)C(=O)[C@H](C)/C=C(C)/C=C/C[C@@H](C)/C=C(C)\C=C\[C@H]1CC=CC(=O)O1 [Compound A-2],Nuclear Export Block,CRM1 substrate RanBP1,Slow recovery
same,IC50,"LNCap; Homo sapiens, LNCaP, 1 h",2.7 nM
same,IC50,"LNCap; Homo sapiens, LNCaP, 72 h",0.4 nM
same,IC50,"HCT-116; Homo sapiens, HCT-116, 1 h",3.7 nM
same,IC50,"HCT-116; Homo sapiens, HCT-116, 72 h",0.7 nM
same,IC50,"SiHa; Homo sapiens, SiHa, 1 h",1.2 nM
same,IC50,"SiHa; Homo sapiens, SiHa, 72 h",0.4 nM
CC(C=CC1CC=CC(=O)O1)=CC(C)CC=CC(C)=CC(C)C(=O)C(C)C(O)C(C)CC(C)=CCOC(=O)NCCN1CCCC1 (stereo not drawn) [Compound A-5],IC50,LNCap; exposure time to compound 1 h,1.7 nM
same,IC50,LNCap; exposure time to compound 72 h,0.5 nM
same,IC50,HCT-116; exposure time to compound 1 h,2.2 nM
same,IC50,HCT-116; exposure time to compound 72 h,1.6 nM
same,IC50,SiHa; exposure time to compound 1 h,2.1 nM
CC(C=CC1CC=CC(=O)O1)=CC(C)CC=CC(C)=CC(C)C(=O)C(C)C(O)C(C)CC(C)=CCOC(=O)NCCc1cccnc1 (stereo not drawn) [Compound A-6],Nuclear Export Block,CRM1 substrate RanBP1,Slow recovery
same,IC50,LNCap; exposure time to compound 1 h,2.8 nM
same,IC50,LNCap; exposure time to compound 72 h,0.4 nM
same,IC50,HCT-116; exposure time to compound 1 h,2.6 nM
same,IC50,HCT-116; exposure time to compound 72 h,0.8 nM
same,IC50,SiHa; exposure time to compound 1 h,2.1 nM
CC(C=CC1CC=CC(=O)O1)=CC(C)CC=CC(C)=CC(C)C(=O)C(C)C(O)C(C)CC(C)=CCOC(=O)NCCN1CCOCC1 (stereo not drawn) [Compound A-7],IC50,LNCap; exposure time to compound 1 h,1.7 nM
same,IC50,LNCap; exposure time to compound 72 h,0.4 nM
same,IC50,HCT-116; exposure time to compound 1 h,1.8 nM
same,IC50,HCT-116; exposure time to compound 72 h,0.4 nM
same,IC50,SiHa; exposure time to compound 1 h,0.5 nM
CCN(CC)CCNC(=O)OCC=C(C)CC(C)C(O)C(C)C(=O)C(C)C=C(C)C=CCC(C)C=C(C)C=CC1CC=CC(=O)O1 (stereo not drawn) [Compound A-8],IC50,LNCap; exposure time to compound 1 h,1.3 nM
same,IC50,LNCap; exposure time to compound 72 h,0.4 nM
same,IC50,HCT-116; exposure time to compound 1 h,2.6 nM
same,IC50,HCT-116; exposure time to compound 72 h,0.8 nM
same,IC50,SiHa; exposure time to compound 1 h,0.5 nM
CC(C=CC1CC=CC(=O)O1)=CC(C)CC=CC(C)=CC(C)C(=O)C(C)C(O)C(C)CC(C)=CCOC(=O)NCCc1ccc(F)cc1 (stereo not drawn) [Compound A-9],IC50,HCT-116; exposure time to compound 1 h,13.8 nM
same,IC50,SiHa; exposure time to compound 1 h,8.2 nM
COCCNC(=O)OCC=C(C)CC(C)C(O)C(C)C(=O)C(C)C=C(C)C=CCC(C)C=C(C)C=CC1CC=CC(=O)O1 (stereo not drawn) [Compound A-10],IC50,HCT-116; exposure time to compound 1 h,3.2 nM
same,IC50,SiHa; exposure time to compound 1 h,2.5 nM
CC(C=CC1CC=CC(=O)O1)=CC(C)CC=CC(C)=CC(C)C(=O)C(C)C(O)C(C)CC(C)=CCOC(=O)NCCc1c(C)noc1C (stereo not drawn) [Compound A-11],IC50,HCT-116; exposure time to compound 1 h,4.2 nM
same,IC50,SiHa; exposure time to compound 1 h,3.1 nM
CC(C=CC1CC=CC(=O)O1)=CC(C)CC=CC(C)=CC(C)C(=O)C(C)C(O)C(C)CC(C)=CCOC(=O)NCc1ccc(F)cc1 (stereo not drawn) [Compound A-12],IC50,HCT-116; exposure time to compound 1 h,13.9 nM
same,IC50,SiHa; exposure time to compound 1 h,5.8 nM
CC(C=CC1CC=CC(=O)O1)=CC(C)CC=CC(C)=CC(C)C(=O)C(C)C(O)C(C)CC(C)=CCOC(=O)NCCN1CCCC1=O (stereo not drawn) [Compound A-13],IC50,HCT-116; exposure time to compound 1 h,2.9 nM
same,IC50,SiHa; exposure time to compound 1 h,3.4 nM
CC(C=CC1CC=CC(=O)O1)=CC(C)CC=CC(C)=CC(C)C(=O)C(C)C(O)C(C)CC(C)=CCOC(=O)NCCn1ccnc1 (stereo not drawn) [Compound A-14],IC50,HCT-116; exposure time to compound 1 h,2.9 nM
same,IC50,SiHa; exposure time to compound 1 h,3.8 nM
CC(=C/[C@H](C)C/C=C/C(C)=C/[C@@H](C)C(=O)[C@@H](C)[C@H](O)[C@@H](C)C/C(C)=C/COC(=O)NCc1cc(C)on1)/C=C/[C@H]1CC=CC(=O)O1 [Compound A-15],IC50,"HCT-116; Homo sapiens, HCT-116, 1 h",2.8 nM
same,IC50,"SiHa; Homo sapiens, SiHa, 1 h",3.6 nM
CC(=C/[C@H](C)C/C=C/C(C)=C/[C@@H](C)C(=O)[C@@H](C)[C@H](O)[C@@H](C)C/C(C)=C/COC(=O)NCc1ccccn1)/C=C/[C@H]1CC=CC(=O)O1 [Compound A-16],IC50,"HCT-116; Homo sapiens, HCT-116, 1 h",2.9 nM
same,IC50,"SiHa; Homo sapiens, SiHa, 1 h",3.8 nM
CC(=C/[C@H](C)C/C=C/C(C)=C/[C@@H](C)C(=O)[C@@H](C)[C@H](O)[C@@H](C)C/C(C)=C/COC(=O)NC[C@@H](O)CO)/C=C/[C@H]1CC=CC(=O)O1 [Compound A-17],IC50,"HCT-116; Homo sapiens, HCT-116, 1 h",3.6 nM
same,IC50,"SiHa; Homo sapiens, SiHa, 1 h",3.2 nM
CC(C=CC1CC=CC(=O)O1)=CC(C)CC=CC(C)=CC(C)C(=O)C(C)C(OC(N)=O)C(C)CC(C)=CCOC(=O)N(Cc1ccccc1)C(N)=O (stereo not drawn) [Compound A-18],IC50,HCT-116; exposure time to compound 1 h,20.3 nM
same,IC50,SiHa; exposure time to compound 1 h,22.5 nM
CC(=C/[C@H](C)C/C=C/C(C)=C/[C@@H](C)C(=O)[C@@H](C)[C@H](O)[C@@H](C)C/C(C)=C/COC(=O)NCc1nccs1)/C=C/[C@H]1CC=CC(=O)O1 [Compound A-19],IC50,"HCT-116; Homo sapiens, HCT-116, 1 h",4.4 nM
same,IC50,"SiHa; Homo sapiens, SiHa, 1 h",4.5 nM
CC(C=CC1CC=CC(=O)O1)=CC(C)CC=CC(C)=CC(C)C(=O)C(C)C(OC(N)=O)C(C)CC(C)=CCOC(=O)NCc1nccs1 (stereo not drawn) [Compound A-20],IC50,HCT-116; exposure time to compound 1 h,9.4 nM
same,IC50,HCT-116; exposure time to compound 72 h,2.6 nM
same,IC50,SiHa; exposure time to compound 1 h,4.6 nM
CC(=C/[C@H](C)C/C=C/C(C)=C/[C@@H](C)C(=O)[C@@H](C)[C@H](O)[C@@H](C)C/C(C)=C/COC(=O)NCc1ccc(C(F)(F)F)cn1)/C=C/[C@H]1CC=CC(=O)O1 [Compound A-21],IC50,"HCT-116; Homo sapiens, HCT-116, 1 h",20 nM
same,IC50,"HCT-116; Homo sapiens, HCT-116, 72 h",3.1 nM
same,IC50,"SiHa; Homo sapiens, SiHa, 1 h",11.5 nM
CC(=C/[C@H](C)C/C=C/C(C)=C/[C@@H](C)C(=O)[C@@H](C)[C@H](O)[C@@H](C)C/C(C)=C/COC(=O)NCc1ccc(C(F)(F)F)nc1)/C=C/[C@H]1CC=CC(=O)O1 [Compound A-22],IC50,"HCT-116; Homo sapiens, HCT-116, 1 h",18.1 nM
CC(=C/[C@H](C)C/C=C/C(C)=C/[C@@H](C)C(=O)[C@@H](C)[C@H](O)[C@@H](C)C/C(C)=C/COC(=O)NCc1cccc(C(F)(F)F)n1)/C=C/[C@H]1CC=CC(=O)O1 [Compound A-23],IC50,"HCT-116; Homo sapiens, HCT-116, 1 h",21.5 nM
CC(=C/[C@H](C)C/C=C/C(C)=C/[C@@H](C)C(=O)[C@@H](C)[C@H](OC(N)=O)[C@@H](C)C/C(C)=C/CO)/C=C/[C@H]1CC=CC(=O)O1 [IV],IC50,"HCT-116; Homo sapiens, HCT-116, 1 h",8.1 nM
same,IC50,"SiHa; Homo sapiens, SiHa, 1 h",3.3 nM
"CC(/C=C/C[C@@H](C)/C=C(C)/C=C/[C@@H]1OC(=O)C=C[C@@H]1C)=C\[C@@H](C)C(=O)[C@@H](C)[C@H](O)[C@@H](C)C/C(C)=C/C(=O)O [Leptomycin A, leptomycin A, reference compound]",Nuclear Export Block,CRM1 substrate RanBP1,Fast recovery
same,IC50,HCT-116; exposure time to compound 1 h,19 nM
same,IC50,HCT-116; exposure time to compound 72 h,1.4 nM
same,IC50,SiHa; exposure time to compound 72 h,0.5 nM
leptolstatin [reference compound],Nuclear Export Block,CRM1 substrate RanBP1,Slow recovery
same,IC50,HCT-116; exposure time to compound 1 h,5.5 nM
same,IC50,HCT-116; exposure time to compound 72 h,0.49 nM
same,IC50,SiHa; exposure time to compound 1 h,1.6 nM
same,IC50,SiHa; exposure time to compound 72 h,0.45 nM
